Key:
[1] = system: TM4SF5-expressing cells; test: Immunofluorescence of focal adhesions and actin, TM4SF5-expressing cells; assay type: cell-based; details: FIG. 15
Procedure: (§1) Cells were treated with DMSO or 20 μM TA for 24 hrs. Then, the cells were plated on 10 μg/ml fibronectin-precoated coverslips and incubated for 2 hrs in the presence of DMSO or 20 μM TA. Subsequently, immunofluorescence staining was performed using pY^397 FAK, pY^118 paxillin, and actin, as described in the literature (Lee, S. Y. et al., Focal adhesion and actin organization by a cross-talk of TM4SF5 with integrin α2 are regulated by serum treatment, Exp Cell Res, 312, pp. 2983-99, 2006). Mounted samples were visualized by a fluorescent microscope (BX51, Olympus, Japan).

[2] = system: TM4SF5-null cells; test: Immunofluorescence of focal adhesions and actin, TM4SF5-null cells; assay type: cell-based; details: 20 μM TA
Procedure: as §1

[3] = system: TM4SF5-expressing cells (SNU449Tp, SNU449T16); test: Degree of adhesion on fibronectin-precoated dishes, TM4SF5-expressing cells; assay type: cell-based; details: 20 μM TA 24 hr, reseeded on fibronectin 1 hr
Procedure: (§2) Thus, it could be thought that TA treatment induces anoikis of TM4SF5-expressing cells. To examine whether TA treatment affected cellular adhesion, the following procedure was performed prior to analysis of TA-meditated cell death, as described in the literature (Yang, X. et al., Palmitoylation supports assembly and function of integrin-tetraspanin complexes, J Cell Biol, 167, pp. 1231-40, 2004).
(§3) Cells were treated with 20 μM TA for 24 hr, and the floating cells were collected and reseeded on fibronectin-precoated dishes for 1 hr before determination of the degree of adhesion.

[4] = system: TM4SF5-null cells (SNU449P, SNU449Cp); test: Degree of adhesion on fibronectin-precoated dishes, TM4SF5-null cells; assay type: cell-based; details: 20 μM TA 24 hr, reseeded on fibronectin 1 hr
Procedure: as §2, §3

[5] = system: SNU449Tp cells expressing TM4SF5; test: Number of floating cells, SNU449Tp; assay type: cell-based; details: TA versus DMSO
Source text: (§4) FIG. 17 is a graph showing the number of floating SNU449Cp and SNU449Tp cells, after tiarellic acid (TA) treatment for various time periods;

[6] = system: SNU449Cp cells expressing no TM4SF5; test: Number of floating cells, SNU449Cp; assay type: cell-based; details: TA versus DMSO
Source text: as §4

[7] = system: Akt and caspase-3 in TM4SF5-expressing SNU449T16 cells; test: Western blotting of cell survival and death-related signaling molecules; assay type: cell-based; details: various time periods
Procedure: FIG. 18 is the result of Western blotting of cell survival and death-related signaling molecules, after tiarellic acid (TA) treatment for various time periods;
Whole cell lysates from cells under diverse experimental conditions were prepared, as described in the literature (Lee, S. Y. et al., Focal adhesion and actin organization by a cross-talk of TM4SF5 with integrin α2 are regulated by serum treatment, Exp Cell Res, 312, pp. 2983-99, 2006). For example, cells were subjected to electroporation (950 μF, 250 V) with a control GFP, wild-type focal adhesion kinase (FAK), paxillin, p130Cas cDNA. One day after electroporation, cells were treated with TA (20 μM) for the indicated periods. Cells cultured normally or treated with TA at different concentrations for the indicated periods were harvested using RIPA buffer. Control or tumor tissues from nude mice were frozen immediately after surgery using liquid N2. Tissues in the liquid N2 was homogenized using a mortar and pestle, and extracted using 0.1% SDS containing RIPA buffer. […]

[8] = system: SNU449Tp and SNU449T16 expressing TM4SF5; test: Analysis of cellular DNA content (sub-G1), TM4SF5-expressing cells; assay type: cell-based; details: 20 μM TA, 24 hr
Source text: FIG. 19 is the result of analyzing cellular DNA content, after tiarellic acid (TA) treatment;

[9] = system: SNU449T16 cells introduced with GFP control, wild-type FAK, paxillin or p130Cas cDNA; test: TA-mediated effects under overexpression of focal adhesion molecules; assay type: cell-based
Procedure: (§5) Whole cell lysates from cells under diverse experimental conditions were prepared, as described in the literature (Lee, S. Y. et al., Focal adhesion and actin organization by a cross-talk of TM4SF5 with integrin α2 are regulated by serum treatment, Exp Cell Res, 312, pp. 2983-99, 2006). For example, cells were subjected to electroporation (950 μF, 250 V) with a control GFP, wild-type focal adhesion kinase (FAK), paxillin, p130Cas cDNA. One day after electroporation, cells were treated with TA (20 μM) for the indicated periods. Cells cultured normally or treated with TA at different concentrations for the indicated periods were harvested using RIPA buffer. Control or tumor tissues from nude mice were frozen immediately after surgery using liquid N2. Tissues in the liquid N2 was homogenized using a mortar and pestle, and extracted using 0.1% SDS containing RIPA buffer. Standard Western blots of lysates were performed by using antibody against phospho-Y^397, Y^407, Y^577, Y^861, Y^925 FAK (BioSource International, Inc., Camarillo, Calif.), phospho-Y^416Src, c-Src, p15^INK4B, p16^INK4A (Santa Cruz Biotech., Santa Cruz, Calif.), FAK, p130Cas, paxillin, pY^118paxillin, active caspase-3 (BD Transduct. Lab., San Jose, Calif.), α-tubulin (Sigma, St Louis, Mo.), phopsho-S^473, or T^308Akt, Akt, phospho-Erk1/2, Erk1/2 (Cell Signaling Tech., Danvers, Mass.), and TM4SF5 (homemade).
To evaluate whether overexpression of focal adhesion molecules such as focal adhesion kinase (FAK), paxillin, and p130Cas would block the effects of TA treatment, the following procedure was performed as described in the literature (Lee, S. Y. et al., Focal adhesion and actin organization by a cross-talk of TM4SF5 with integrin α2 are regulated by serum treatment, Exp Cell Res, 312, pp. 2983-99, 2006).
To explore this, each cDNA was introduced into SNU449T16 cells via electroporation. After 1 day, the cells were treated with 20 μM TA for 24 hrs to obtain lysates. […] Therefore, the TA-mediated effects on TM4SF5-expressing cells could be overcome to a certain degree by overexpression of focal adhesion molecules. On the other hand, changes in Erk1/2 activation were not observed under each experimental condition, thereby understanding TA-mediated effects on signal transduction in this experimental system.

[10] = system: TM4SF5-expressing SNU449T16 cells tumors; test: TM4SF5-mediated tumor formation in nude mice; assay type: in vivo; details: for tumor volumes decreased to: 30 days
Procedure: (§6) 4-5 week old female nude mice (BALB/cAnNCrjBgi-nu) were purchased from Orient. Co. Ltd. (Seongnam, Korea). The mice were housed in a specific pathogen-free room under controlled temperature and humidity. All animal procedures were performed in accordance with the procedures in Seoul National University Laboratory Animal Maintenance Manual and with IRB agreement. Mice aged 5-6 weeks were injected subcutaneously with 5×10^6 viable SNU449Cp or SNU449T16 cells. Tumor volumes were measured with a caliper and calculated using the following Mathematical Formula 1. When the tumor volume reached 200 mm^3, mice were injected intraperitoneally with 3 mg/kg or 30 mg/kg (body weight) of tiarellic acid (TA) every other day for 30 days. (Width×Length^2)/2 [Mathematical Formula 1]
Width: minimal diameter (mm)
Length: maximal diameter (mm)
(§7) To evaluate whether tiarellic acid (TA) administration might interfere with TM4SF5 mediated tumor formation in nude mice, the following experiment was performed as described in the literature (Lee S-A et al., TM4SF5-mediated transmodulation between cytosolic p27Kip1 and Rho GTPases and epithelial-mesenchymal transition cause loss of contact inhibition, Cancer Cell, 2007).

[11] = system: Akt, p15INK4B, p16INK4A, caspase-3 in TM4SF5-mediated tumor tissue; test: Western blot and immunohistochemical staining of tumor tissue from nude mice; assay type: in vivo
Procedure: as §5, §6, §7

[12] = Body weight and toxic side effects in tumor-bearing nude mice; assay type: in vivo; details: 3 or 30 mg/kg i.p. every other day, 30 days
Procedure: as §6, §7

[13] = Western blot, TA administration

SMILES: C=C(C)C1CC[C@]2(C)CC[C@]3(C(=O)O)C(CCC4[C@@]5(C)CC[C@H](O)[C@@](C)(CO)C5CC[C@]43C)C12 (stereo partly drawn) [tiarellic acid (TA), 3,23-dihydroxy-20(29)-lupen-27-oic acid]
- actin organization and stress fibers [1]: abnormal actin organization with insignificant stress fibers
- focal adhesion formation [2]: did not affect
- adhesion [3]: significantly reduced adhesions
- adhesion [4]: not affected
- number of floating cells [5]: increased
- number of floating cells [6]: did not affect
- Akt and caspase-3 activity [7]: Akt inactivation and caspase-3 activation
- sub-G1 populations (cellular DNA content) [8]: significant sub-G1 populations
- TA-mediated increases in the sub-G1 population under overexpression ([9]; SNU449T16 overexpressing focal adhesion molecules): blocked
- focal adhesion molecule and caspase-3 activity ([9]; SNU449T16 with control plasmid (GFP), 20 μM TA): time-dependent inactivation of focal adhesion molecules and activation of caspase-3
- TA-mediated effects under overexpression ([9]; SNU449T16 with wild-type FAK, paxillin, or p130Cas, 20 μM TA): certain degrees of blocking
- changes in Erk1/2 activation ([9]; each experimental condition): not observed
- tumor volumes decreased to ([10]; 3 mg/kg body weight i.p. every other day): 46.0%
- tumor volumes decreased to ([10]; 30 mg/kg body weight i.p. every other day): 22.1%
- TM4SF5-mediated tumor formation ([10]; intraperitoneally every other day for 30 days, established tumors ~200 mm^3): decreased
- Akt activation in tumor tissue [11, 13]: decreased
- caspase-3 activation in tumor tissue [11, 13]: enhanced
- p15INK4B or p16INK4A CKI levels in tumor tissue [11, 13]: increased
- immunohistochemical staining for active caspase-3 ([11]; tumor tissue from TA-treated mice): positive
- body weight [12]: increased normally
- toxic side effects [12]: no significant toxic side effects

From US8299049B2, “Compositions comprising an extract of Tiarella polyphylla or compounds isolated therefrom for preventing and treating cancer diseases” (Korea Institute of Bioscience and Biotechnology, priority 2007, dated 2012)
